Measured values as given in ChEMBL document CHEMBL3792365, “Dioxol and dihydrodioxin analogs of 2- and 3-phenylacetonitriles as potent anti-cancer agents with nanomolar activity against a variety of human cancer cells” (2016).

Assays:
Format in all cases: functional
[1] = Growth inhibition of human OVCAR8 cells at 10 uM after 48 hrs by sulforhodamine B assay; details: OVCAR-8, 48 h, values are per cent of control
[2] = Growth inhibition of human UACC62 cells at 10 uM after 48 hrs by sulforhodamine B assay; details: UACC-62, 48 h, values are per cent of control
[3] = Growth inhibition of human HCT116 cells at 10 uM after 48 hrs by sulforhodamine B assay; details: HCT-116, 48 h, values are per cent of control
[4] = Growth inhibition of human DU145 cells at 10 uM after 48 hrs by sulforhodamine B assay; details: DU-145, 48 h, values are per cent of control
[5] = Growth inhibition of human SW620 cells at 10 uM after 48 hrs by sulforhodamine B assay; details: SW-620, 48 h, values are per cent of control
[6] = Growth inhibition of human RXF393 cells at 10 uM after 48 hrs by sulforhodamine B assay; details: RXF 393, 48 h, values are per cent of control
[7] = Growth inhibition of human COLO205 cells at 10 uM after 48 hrs by sulforhodamine B assay; details: COLO 205, 48 h, values are per cent of control
MDA-MB-435 = test: Growth inhibition of human MDA-MB-435 cells at 10 uM after 48 hrs by sulforhodamine B assay; details: MDA-MB-435, 48 h, values are per cent of control
A549 = test: Growth inhibition of human A549/ATCC cells at 10 uM after 48 hrs by sulforhodamine B assay; details: A549, 48 h, values are per cent of control
SN12C = test: Growth inhibition of human SN12C cells at 10 uM after 48 hrs by sulforhodamine B assay; details: values are per cent of control
[8] = Growth inhibition of human SNB75 cells at 10 uM after 48 hrs by sulforhodamine B assay; details: SNB-75, 48 h, values are per cent of control
[9] = Growth inhibition of human SF295 cells at 10 uM after 48 hrs by sulforhodamine B assay; details: SF-295, 48 h, values are per cent of control
HT-29 = test: Growth inhibition of human HT-29 cells at 10 uM after 48 hrs by sulforhodamine B assay; details: HT-29, 48 h, values are per cent of control
[10] = Growth inhibition of human SNB19 cells at 10 uM after 48 hrs by sulforhodamine B assay; details: SNB-19, 48 h, values are per cent of control
NCI-H226 = test: Growth inhibition of human NCI-H226 cells at 10 uM after 48 hrs by sulforhodamine B assay; details: NCI-H226, 48 h, values are per cent of control
[11] = Growth inhibition of human OVCAR4 cells at 10 uM after 48 hrs by sulforhodamine B assay; details: OVCAR-4, 48 h, values are per cent of control
[12] = Growth inhibition of human HOP62 cells at 10 uM after 48 hrs by sulforhodamine B assay; details: HOP-62, 48 h, values are per cent of control
[13] = Growth inhibition of human IGROV1 cells at 10 uM after 48 hrs by sulforhodamine B assay; details: IGROV-1, 48 h, values are per cent of control
[14] = Growth inhibition of human LOXIMVI cells at 10 uM after 48 hrs by sulforhodamine B assay; details: LOX IMVI, values are per cent of control
NCI-H322M = test: Growth inhibition of human NCI-H322M cells at 10 uM after 48 hrs by sulforhodamine B assay; details: values are per cent of control
[15] = Growth inhibition of human Caki1 cells at 10 uM after 48 hrs by sulforhodamine B assay; details: CAKI-1, 48 h, values are per cent of control
SK-MEL-5 = test: Growth inhibition of human SK-MEL-5 cells at 10 uM after 48 hrs by sulforhodamine B assay; details: SK-MEL-5, 48 h, values are per cent of control
NCI-H460 = test: Growth inhibition of human NCI-H460 cells at 10 uM after 48 hrs by sulforhodamine B assay; details: NCI-H460, 48 h, values are per cent of control
[16] = Growth inhibition of human SF539 cells at 10 uM after 48 hrs by sulforhodamine B assay; details: SF-539, 48 h, values are per cent of control
A498 = test: Growth inhibition of human A498 cells at 10 uM after 48 hrs by sulforhodamine B assay; details: A498, 48 h, values are per cent of control
KM12 = test: Growth inhibition of human KM12 cells at 10 uM after 48 hrs by sulforhodamine B assay; details: KM12, 48 h, values are per cent of control
[17] = Growth inhibition of human HCT15 cells at 10 uM after 48 hrs by sulforhodamine B assay; details: HCT-15, 48 h, values are per cent of control
786-0 = test: Growth inhibition of human 786-0 cells at 10 uM after 48 hrs by sulforhodamine B assay; details: 786-0, 48 h, values are per cent of control
SR = test: Growth inhibition of human SR cells at 10 uM after 48 hrs by sulforhodamine B assay; details: values are per cent of control
K562 = test: Growth inhibition of human K562 cells at 10 uM after 48 hrs by sulforhodamine B assay; details: K562, 48 h, values are per cent of control
SK-MEL-2 = test: Growth inhibition of human SK-MEL-2 cells at 10 uM after 48 hrs by sulforhodamine B assay; details: SK-MEL-2, 48 h, values are per cent of control
[18] = Growth inhibition of human OVCAR5 cells at 10 uM after 48 hrs by sulforhodamine B assay; details: OVCAR-5, 48 h, values are per cent of control
[19] = Growth inhibition of human UO31 cells at 10 uM after 48 hrs by sulforhodamine B assay; details: UO-31, 48 h, values are per cent of control
[20] = Growth inhibition of human Hs 578T cells at 10 uM after 48 hrs by sulforhodamine B assay; details: values are per cent of control
ACHN = test: Growth inhibition of human ACHN cells at 10 uM after 48 hrs by sulforhodamine B assay; details: values are per cent of control
MDA-MB-231 = test: Growth inhibition of human MDA-MB-231 cells at 10 uM after 48 hrs by sulforhodamine B assay; details: MDA-MB-231, 48 h, values are per cent of control
NCI-H23 = test: Growth inhibition of human NCI-H23 cells at 10 uM after 48 hrs by sulforhodamine B assay; details: NCI-H23, 48 h, values are per cent of control
M14 = test: Growth inhibition of human M14 cells at 10 uM after 48 hrs by sulforhodamine B assay; details: M14, 48 h, values are per cent of control
[21] = Growth inhibition of human BT549 cells at 10 uM after 48 hrs by sulforhodamine B assay; details: BT-549, 48 h, values are per cent of control
SK-MEL-28 = test: Growth inhibition of human SK-MEL-28 cells at 10 uM after 48 hrs by sulforhodamine B assay; details: SK-MEL-28, 48 h, values are per cent of control

Compound N#C/C(=C\c1c(Cl)cccc1Cl)c1ccc2c(c1)OCO2 has a growth, % of control at 10 µM [1] of 92.6%, a growth, % of control at 10 µM [2] of 86.4% and a growth, % of control at 10 µM [3] of 89.7%. The growth, % of control at 10 µM [4] was 99.3%, the growth, % of control at 10 µM [5] was 99.9% and the growth, % of control at 10 µM [6] was 96.1%. It also gave a growth, % of control at 10 µM [7] of 99.6%, a growth, % of control at 10 µM (MDA-MB-435) of 63.5% and a growth, % of control at 10 µM (A549) of 79.9%. For the same compound, the growth, % of control at 10 µM (SN12C) was 95.9%, the growth, % of control at 10 µM [8] was 51.5% and the growth, % of control at 10 µM [9] was 95.6%. It also gave a growth, % of control at 10 µM (HT-29) of 93.7%, a growth, % of control at 10 µM [10] of 106% and a growth, % of control at 10 µM (NCI-H226) of 111%. The growth, % of control at 10 µM [11] was 79.9%, the growth, % of control at 10 µM [12] was 90.6% and the growth, % of control at 10 µM [13] was 85.6%. For the same compound, the growth, % of control at 10 µM [14] was 98.9%, the growth, % of control at 10 µM (NCI-H322M) was 102% and the growth, % of control at 10 µM [15] was 83.2%. It also gave a growth, % of control at 10 µM (SK-MEL-5) of 93.5%, a growth, % of control at 10 µM (NCI-H460) of 102% and a growth, % of control at 10 µM [16] of 97.9%. It also gave a growth, % of control at 10 µM (A498) of 82.7%, a growth, % of control at 10 µM (KM12) of 95.2% and a growth, % of control at 10 µM [17] of 92.6%. For the same compound, the growth, % of control at 10 µM (786-0) was 95.6%, the growth, % of control at 10 µM (SR) was 77% and the growth, % of control at 10 µM (K562) was 77.5%. It also gave a growth, % of control at 10 µM (SK-MEL-2) of 90.6%, a growth, % of control at 10 µM [18] of 103% and a growth, % of control at 10 µM [19] of 80.1%. For the same compound, the growth, % of control at 10 µM [20] was 101%, the growth, % of control at 10 µM (ACHN) was 103% and the growth, % of control at 10 µM (MDA-MB-231) was 95.8%. The growth, % of control at 10 µM (NCI-H23) was 93.7%, the growth, % of control at 10 µM (M14) was 89.7% and the growth, % of control at 10 µM [21] was 100%. It also gave a growth, % of control at 10 µM (SK-MEL-28) of 104%.
